According to patent publication US20260235624A1, “PEPTIDES AND THEIR LABELLED DERIVATIVES SUITABLE FOR USE IN THE DIAGNOSIS OF DIABETES OR ITS COMPLICATIONS” (Instytut Medycyny Doswiadczalnej i Klinicznej im. Miroslawa …, priority 2023, published 2026):

What was measured:
[1] = system: ADAM17; test: Hydrolysis of the ADAM17 substrate in urine samples, increase in fluorescence; format: biochemical, human; settings: control urine samples Z1-Z10 (healthy subjects); 20 μL of 45 μM substrate, buffer pH 9.0, 37° C., 30 minutes, triplicate
Description: (§1) 20 μL of a 45 μM substrate solution of the peptide of the invention or its labelled derivative were mixed with 100 μL of the measurement buffer (25 mM Tris-Cl, 2.5 μM ZnCl2 and 0.005% Brij-35, pH 9.0) and 80 μL of test urine from a patient diagnosed with diabetes or a healthy person (control).
(§2) When fluorescently labelled derivatives were used, measurements were carried out in triplicate in a 96-well plate using a CLARIOStar plate reader (BMG Labtech, Ortenberg, Germany) at 37° C. for 30 minutes. After this time, the measurement was finished and the increase in fluorescence was determined. If a fluorescence increase of more than 0.0001 U/sec was obtained, the urine sample tested was considered to originate from a person with diabetes.

[2] = system: ADAM10; test: Hydrolysis of the ADAM10 substrate in urine samples, increase in fluorescence; format: biochemical, human; settings: control urine samples Z1-Z10 (healthy subjects); 20 μL of 45 μM substrate, buffer pH 9.0, 37° C., 30 minutes, triplicate
Description: as §1, §2

Row | Substance | Increase in concentration of labelled degradation products in the urine sample, Mean [1] | Increase in concentration of labelled degradation products in the urine sample, Mean [2]
1 | ABZ-Asn-Tyr-Met-Ala-Leu-Arg-Arg-Tyr(3-NO2)—NH2 | 0.000000 | –
2 | ABZ-Lys-Ile-Ile-Asn-Leu-Lys-Arg-Tyr(3-NO2)—NH2 | – | 0.000000
